# ChEMBL document CHEMBL2440076, “New triarylpyrazoles as broad-spectrum anticancer agents: design, synthesis, and biological evaluation” (Eur J Med Chem, 2013)
# How the values were obtained:
# MDA-MB-435 = assay: Growth inhibition of human MDA-MB-435 cells after 48 hrs by sulforhodamine B assay; assay type: functional, cell-based; conditions: MDA-MB-435, 48 h
# IGROV-1 = assay: Growth inhibition of human IGROV1 cells after 48 hrs by sulforhodamine B assay; assay type: functional; conditions: IGROV-1, 48 h
# BT-549 = assay: Growth inhibition of human BT549 cells after 48 hrs by sulforhodamine B assay; assay type: functional; conditions: BT-549, 48 h
# M14 = assay: Growth inhibition of human M14 cells assessed as cell growth at 10 uM after 48 hrs by sulforhodamine B assay; assay type: functional; conditions: M14, 48 h, read-out: Activity
# DU-145 = assay: Growth inhibition of human DU145 cells assessed as cell growth at 10 uM after 48 hrs by sulforhodamine B assay; assay type: functional; conditions: DU-145, 48 h, read-out: Activity
# U-251 = assay: Growth inhibition of human U251 cells assessed as cell growth at 10 uM after 48 hrs by sulforhodamine B assay; assay type: functional; conditions: U-251, 48 h, read-out: Activity
# NCI-H23 = assay: Growth inhibition of human NCI-H23 cells assessed as cell growth at 10 uM after 48 hrs by sulforhodamine B assay; assay type: functional; conditions: NCI-H23, 48 h, read-out: Activity
# UACC-257 = assay: Growth inhibition of human UACC257 cells after 48 hrs by sulforhodamine B assay; assay type: functional; conditions: UACC-257, 48 h
# KM12 = assay: Growth inhibition of human KM12 cells after 48 hrs by sulforhodamine B assay; assay type: functional, cell-based; conditions: KM12, 48 h
# K562 = assay: Growth inhibition of human K562 cells assessed as cell growth at 10 uM after 48 hrs by sulforhodamine B assay; assay type: functional; conditions: K562, 48 h, read-out: Activity
# NCI-H322M = assay: Growth inhibition of human NCI-H322M cells after 48 hrs by sulforhodamine B assay; assay type: functional
# OVCAR-5 [1] = assay: Growth inhibition of human OVCAR5 cells after 48 hrs by sulforhodamine B assay; assay type: functional; conditions: OVCAR-5, 48 h
# SF-295 = assay: Growth inhibition of human SF295 cells after 48 hrs by sulforhodamine B assay; assay type: functional, cell-based; conditions: SF-295, 48 h
# MDA-MB-231 [2] = assay: Growth inhibition of human MDA-MB-231 cells after 48 hrs by sulforhodamine B assay; assay type: functional; conditions: MDA-MB-231, 48 h
# SK-MEL-2 = assay: Growth inhibition of human SK-MEL-2 cells after 48 hrs by sulforhodamine B assay; assay type: functional; conditions: SK-MEL-2, 48 h
# T47D = assay: Growth inhibition of human T47D cells assessed as cell growth at 10 uM after 48 hrs by sulforhodamine B assay; assay type: functional; conditions: read-out: Activity
# HL-60(TB) = assay: Growth inhibition of human HL-60(TB) cells after 48 hrs by sulforhodamine B assay; assay type: functional; conditions: HL-60, 48 h
# HOP-62 = assay: Growth inhibition of human HOP62 cells assessed as cell growth at 10 uM after 48 hrs by sulforhodamine B assay; assay type: functional; conditions: HOP-62, 48 h, read-out: Activity
# SW-620 = assay: Growth inhibition of human SW620 cells assessed as cell growth at 10 uM after 48 hrs by sulforhodamine B assay; assay type: functional; conditions: SW-620, 48 h, read-out: Activity
# CCRF-CEM = assay: Growth inhibition of human CCRF-CEM cells after 48 hrs by sulforhodamine B assay; assay type: functional
# [3] = Growth inhibition of human NCI-ADR-RES cells after 48 hrs by sulforhodamine B assay; assay type: functional
# SF-268 = assay: Growth inhibition of human SF268 cells assessed as cell growth at 10 uM after 48 hrs by sulforhodamine B assay; assay type: functional; conditions: SF-268, 48 h, read-out: Activity
# PC-3 = assay: Growth inhibition of human PC3 cells after 48 hrs by sulforhodamine B assay; assay type: functional, cell-based; conditions: PC-3, 48 h
# RPMI-8226 = assay: Growth inhibition of human RPMI8226 cells assessed as cell growth at 10 uM after 48 hrs by sulforhodamine B assay; assay type: functional; conditions: RPMI-8226, 48 h, read-out: Activity
# COLO 205 = assay: Growth inhibition of human COLO205 cells assessed as cell growth at 10 uM after 48 hrs by sulforhodamine B assay; assay type: functional; conditions: COLO 205, 48 h, read-out: Activity
# MDA-MB-231 [4] = assay: Growth inhibition of human MDA-MB-231 cells assessed as cell growth at 10 uM after 48 hrs by sulforhodamine B assay; assay type: functional; conditions: MDA-MB-231, 48 h, read-out: Activity
# SK-MEL-28 = assay: Growth inhibition of human SK-MEL-28 cells assessed as cell growth at 10 uM after 48 hrs by sulforhodamine B assay; assay type: functional; conditions: SK-MEL-28, 48 h, read-out: Activity
# OVCAR-5 [5] = assay: Growth inhibition of human OVCAR5 cells assessed as cell growth at 10 uM after 48 hrs by sulforhodamine B assay; assay type: functional; conditions: OVCAR-5, 48 h, read-out: Activity
# MOLT-4 = assay: Growth inhibition of human MOLT4 cells after 48 hrs by sulforhodamine B assay; assay type: functional; conditions: MOLT-4, 48 h
# RXF 393 = assay: Growth inhibition of human RXF393 cells after 48 hrs by sulforhodamine B assay; assay type: functional; conditions: RXF 393, 48 h
# [6] = Growth inhibition of human Hs 578T cells after 48 hrs by sulforhodamine B assay; assay type: functional
# NCI-H460 = assay: Growth inhibition of human NCI-H460 cells after 48 hrs by sulforhodamine B assay; assay type: functional; conditions: NCI-H460, 48 h
# MCF7 = assay: Growth inhibition of human MCF7 cells after 48 hrs by sulforhodamine B assay; assay type: functional; conditions: MCF7, 48 h
# [7] = read-out: LC50 (the source's name)
structure (smiles),measurement,setting,value
COc1cc(-c2nn(-c3cccc(NC(=O)c4ccc(Cl)c(C(F)(F)F)c4)c3)cc2-c2ccncc2)ccc1Cl,GI50,MDA-MB-435,0.664 µM
same,IC50,MDA-MB-435,0.66 µM
same,TGI,MDA-MB-435,1.74 µM
same,CC50,MDA-MB-435; [7],24.7 µM
same,GI50,IGROV-1,2.15 µM
same,LC50 (concentration killing 50% of cells),IGROV-1,> 32.5 µM
same,TGI,IGROV-1,> 32.5 µM
same,GI50,BT-549,7.54 µM
same,LC50 (50% lethal concentration),BT-549,> 32.5 µM
same,TGI,BT-549,> 32.5 µM
same,growth at 10 µM,M14,26.2%
same,growth at 10 µM,DU-145,65.4%
same,growth at 10 µM,U-251,32.5%
same,growth at 10 µM,NCI-H23,58.9%
same,GI50,UACC-257,7.13 µM
same,TGI,UACC-257,> 32.5 µM
same,CC50,UACC-257; [7],> 32.5 µM
same,GI50,KM12,2.06 µM
same,TGI,KM12,> 32.5 µM
same,CC50,KM12; [7],> 32.5 µM
same,growth at 10 µM,K562,8.65%
same,GI50,NCI-H322M,12.8 µM
same,TGI,NCI-H322M,> 32.5 µM
same,CC50,NCI-H322M; [7],> 32.5 µM
same,GI50,OVCAR-5 [1],> 32.5 µM
same,LC50 (concentration killing 50% of cells),OVCAR-5 [1],> 32.5 µM
same,TGI,OVCAR-5 [1],> 32.5 µM
same,GI50,SF-295,1.38 µM
same,IC50,SF-295,1.38 µM
same,TGI,SF-295,17.3 µM
same,CC50,SF-295; [7],> 32.5 µM
same,GI50,MDA-MB-231 [2],1.2 µM
same,LC50,MDA-MB-231 [2],> 32.5 µM
same,TGI,MDA-MB-231 [2],> 32.5 µM
same,GI50,SK-MEL-2,1.9 µM
same,LC50 (50% lethal concentration),SK-MEL-2,> 32.5 µM
same,TGI,SK-MEL-2,19.7 µM
same,growth at 10 µM,T47D,26.2%
same,GI50,HL-60(TB),5.48 µM
same,TGI,HL-60(TB),> 32.5 µM
same,CC50,HL-60(TB); [7],> 32.5 µM
same,growth at 10 µM,HOP-62,53%
same,growth at 10 µM,SW-620,36.1%
same,GI50,CCRF-CEM,1.77 µM
same,LC50,CCRF-CEM,> 32.5 µM
same,TGI,CCRF-CEM,> 32.5 µM
same,GI50,[3],1.29 µM
same,TGI,[3],11.2 µM
same,CC50,[3]; [7],> 32.5 µM
same,growth at 10 µM,SF-268,46.7%
same,GI50,PC-3,1.29 µM
same,IC50,PC-3,1.29 µM
same,TGI,PC-3,> 32.5 µM
same,CC50,PC-3; [7],> 32.5 µM
same,growth at 10 µM,RPMI-8226,25.4%
same,growth at 10 µM,COLO 205,69.4%
same,growth at 10 µM,MDA-MB-231 [4],25.8%
same,growth at 10 µM,SK-MEL-28,41.6%
same,growth at 10 µM,OVCAR-5 [5],91.3%
same,GI50,MOLT-4,5.24 µM
same,TGI,MOLT-4,> 32.5 µM
same,CC50,MOLT-4; [7],> 32.5 µM
same,GI50,RXF 393,1.76 µM
same,LC50 (concentration killing 50% of cells),RXF 393,> 32.5 µM
same,TGI,RXF 393,18.7 µM
same,GI50,[6],2.17 µM
same,TGI,[6],> 32.5 µM
same,CC50,[6]; [7],> 32.5 µM
same,GI50,NCI-H460,3.47 µM
same,LC50,NCI-H460,> 32.5 µM
same,TGI,NCI-H460,> 32.5 µM
same,GI50,MCF7,2.24 µM
same,LC50,MCF7,> 32.5 µM
same,TGI,MCF7,> 32.5 µM
